The text below walks through data of BindingDB's records for doi:10.1021/jm050792d (University of Naples Federico II, 2005).

Some results are limits rather than exact numbers.

Usually Ki stands for the equilibrium dissociation constant of an inhibitor or competing ligand from its target. A lower Ki goes with a stronger hold on the target.

Assay [1] concerns the target Adenosine receptor A2a (Homo sapiens, UniProt P29274). In words: Displacement of [3H]NECA from human adenosine A2A receptor expressed in CHO cells. A general note: In a radioligand displacement assay an active substance lowers the binding of a labelled ligand.
Assay [2] addresses T1, Adenosine receptor A1 (Homo sapiens, UniProt P30542).
T1 sequence (P30542 whole entry): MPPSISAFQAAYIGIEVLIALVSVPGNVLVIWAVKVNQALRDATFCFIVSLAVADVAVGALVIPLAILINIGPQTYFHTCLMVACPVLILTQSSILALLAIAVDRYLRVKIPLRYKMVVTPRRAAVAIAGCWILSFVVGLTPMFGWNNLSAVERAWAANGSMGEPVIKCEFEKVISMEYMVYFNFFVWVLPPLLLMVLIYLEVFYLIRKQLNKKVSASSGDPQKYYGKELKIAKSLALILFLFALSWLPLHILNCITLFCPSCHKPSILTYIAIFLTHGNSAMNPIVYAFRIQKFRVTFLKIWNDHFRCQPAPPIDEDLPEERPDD
In words: Displacement of [3H]DPCPX from human adenosine A1 receptor expressed in CHO cells.

Sequence of Adenosine receptor A2a (P29274 whole entry): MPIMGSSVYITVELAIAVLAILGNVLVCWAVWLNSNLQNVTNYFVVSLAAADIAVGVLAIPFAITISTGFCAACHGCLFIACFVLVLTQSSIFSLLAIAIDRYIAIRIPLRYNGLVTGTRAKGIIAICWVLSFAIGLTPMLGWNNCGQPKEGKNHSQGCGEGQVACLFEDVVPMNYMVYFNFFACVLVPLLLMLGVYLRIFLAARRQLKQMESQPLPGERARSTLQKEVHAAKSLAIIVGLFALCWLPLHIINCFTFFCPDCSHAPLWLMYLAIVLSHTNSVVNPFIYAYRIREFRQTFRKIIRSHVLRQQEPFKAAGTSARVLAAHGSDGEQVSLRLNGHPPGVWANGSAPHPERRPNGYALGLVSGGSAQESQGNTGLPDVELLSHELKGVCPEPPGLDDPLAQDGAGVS

For the compound `O=c1c2[nH]nnc2nc2n1CCCS2` [7,8-Dihydro-3H,6H-5-thia-1,2,3,4,8a-pentaaza-cyclopenta[b]naphthalen-9-one], the Ki in assay [1] and in assay [2] was greater than 10 µM each time.
Regarding `CC1CSc2nc3nn[nH]c3c(=O)n21` (centres undefined) [7-methyl-6,7-dihydro[1,3]thiazolo[3,2-a][1,2,3]triazolo[4,5-d]pyrimidin-9(3H)-one], the inhibition constant Ki in assay [1] and in assay [2] was greater than 10 µM in each case.
